Test results: patent US9493448B2, “Cycloalkane derivatives” (Daiichi Sankyo Company, Limited, priority 2012, dated 2016)
Where a name gives a salt, the structure may show the parent alone.

Target: hNav 1.7 (Homo sapiens (Human), UniProt Q15858)
Test: Electrophysiological evaluation, automated patch clamp IonWorks Quattro (Population Patch Clamp mode)
Type: cell-based
Conditions: HEK293A cells stably expressing hNav 1.7/β1/β2; response to second depolarization pulse, pre-pulse potential set to V1/2; read-out: hNav1.7 IC50

hNav 1.7, sequence (Q15858 whole entry): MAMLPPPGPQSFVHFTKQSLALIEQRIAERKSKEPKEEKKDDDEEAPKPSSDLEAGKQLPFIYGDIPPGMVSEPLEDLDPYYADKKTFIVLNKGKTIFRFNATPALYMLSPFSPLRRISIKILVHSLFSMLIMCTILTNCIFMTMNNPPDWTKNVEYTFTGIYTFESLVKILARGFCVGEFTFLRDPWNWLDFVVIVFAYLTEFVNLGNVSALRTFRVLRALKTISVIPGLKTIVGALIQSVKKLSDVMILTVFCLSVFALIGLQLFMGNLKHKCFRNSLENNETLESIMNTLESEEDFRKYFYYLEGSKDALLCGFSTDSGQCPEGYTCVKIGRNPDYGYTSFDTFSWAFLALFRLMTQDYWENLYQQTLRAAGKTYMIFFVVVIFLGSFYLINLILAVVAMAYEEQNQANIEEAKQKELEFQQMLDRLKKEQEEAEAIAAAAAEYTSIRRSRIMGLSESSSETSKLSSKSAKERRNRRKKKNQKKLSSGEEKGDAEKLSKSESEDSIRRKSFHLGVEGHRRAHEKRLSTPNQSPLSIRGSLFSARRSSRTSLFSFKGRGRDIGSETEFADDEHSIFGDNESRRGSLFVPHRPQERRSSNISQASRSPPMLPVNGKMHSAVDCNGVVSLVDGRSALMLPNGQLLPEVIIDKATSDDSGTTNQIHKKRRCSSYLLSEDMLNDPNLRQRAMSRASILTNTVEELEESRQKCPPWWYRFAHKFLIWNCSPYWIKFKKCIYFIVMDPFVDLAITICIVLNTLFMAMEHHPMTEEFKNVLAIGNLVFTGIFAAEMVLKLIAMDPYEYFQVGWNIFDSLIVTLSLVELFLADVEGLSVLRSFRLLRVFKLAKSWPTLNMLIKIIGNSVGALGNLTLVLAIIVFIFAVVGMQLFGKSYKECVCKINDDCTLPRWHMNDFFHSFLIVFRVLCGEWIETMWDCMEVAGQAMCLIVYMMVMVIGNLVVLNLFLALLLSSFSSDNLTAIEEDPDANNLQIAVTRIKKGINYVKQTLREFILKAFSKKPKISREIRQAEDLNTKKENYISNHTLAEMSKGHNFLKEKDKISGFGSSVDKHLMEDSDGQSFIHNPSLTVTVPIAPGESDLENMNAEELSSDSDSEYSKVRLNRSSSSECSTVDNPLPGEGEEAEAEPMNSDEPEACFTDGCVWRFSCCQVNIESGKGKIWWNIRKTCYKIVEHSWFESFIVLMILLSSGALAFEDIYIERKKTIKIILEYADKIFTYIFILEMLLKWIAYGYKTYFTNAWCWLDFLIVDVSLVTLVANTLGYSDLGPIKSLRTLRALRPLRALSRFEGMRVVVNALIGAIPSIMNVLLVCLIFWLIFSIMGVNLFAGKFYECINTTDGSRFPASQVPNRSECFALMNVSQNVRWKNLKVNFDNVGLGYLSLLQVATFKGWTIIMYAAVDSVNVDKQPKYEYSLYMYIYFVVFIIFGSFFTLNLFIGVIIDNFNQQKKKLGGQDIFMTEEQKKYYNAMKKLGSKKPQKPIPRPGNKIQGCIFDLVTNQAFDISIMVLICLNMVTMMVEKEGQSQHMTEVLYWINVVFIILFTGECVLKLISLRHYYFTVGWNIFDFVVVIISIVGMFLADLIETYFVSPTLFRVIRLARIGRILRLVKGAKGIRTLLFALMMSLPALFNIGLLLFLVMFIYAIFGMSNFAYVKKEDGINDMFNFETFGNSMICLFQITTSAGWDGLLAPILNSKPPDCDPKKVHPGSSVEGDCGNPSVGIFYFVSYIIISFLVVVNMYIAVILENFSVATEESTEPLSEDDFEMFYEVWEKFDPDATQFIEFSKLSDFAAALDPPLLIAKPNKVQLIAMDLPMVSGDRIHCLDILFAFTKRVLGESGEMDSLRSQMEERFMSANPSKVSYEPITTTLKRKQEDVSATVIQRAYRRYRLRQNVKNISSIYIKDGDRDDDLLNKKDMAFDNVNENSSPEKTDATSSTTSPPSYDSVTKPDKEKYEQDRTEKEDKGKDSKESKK
hNav 1.7, sequence (Q07699 19-218 partner): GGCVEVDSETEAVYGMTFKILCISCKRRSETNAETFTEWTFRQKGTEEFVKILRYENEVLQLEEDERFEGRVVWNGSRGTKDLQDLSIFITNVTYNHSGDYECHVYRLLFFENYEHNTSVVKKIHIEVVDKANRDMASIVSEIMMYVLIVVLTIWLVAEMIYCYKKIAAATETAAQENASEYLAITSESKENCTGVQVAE
hNav 1.7, sequence (O60939 30-215 partner): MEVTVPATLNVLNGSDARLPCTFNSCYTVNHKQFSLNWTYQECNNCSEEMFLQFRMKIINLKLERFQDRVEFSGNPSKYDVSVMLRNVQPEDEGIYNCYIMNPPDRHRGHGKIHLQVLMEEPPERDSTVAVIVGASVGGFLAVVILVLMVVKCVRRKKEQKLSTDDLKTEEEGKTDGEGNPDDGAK

Compound	IC50 [nM]
Cn1nccc1[C@H]1CCC[C@@H]1Oc1cc(F)c(S(=O)(=O)Nc2cscn2)cc1Cl (relative stereo) [Example 11, 5-Chloro-2-fluoro-4-{[(1S*,2R*)-2-(1-methyl-1H-pyrazol-5-yl)cyclopentyl]oxy}-N-(1,3-thiazol-4-yl)benzenesulfonamide Na salt]	10
CCc1cc(S(=O)(=O)Nc2ccncn2)ccc1O[C@H]1CCCC[C@@H]1c1c[nH]nc1N (relative stereo) [Example 89, 4-{[(1S*,2R*)-2-(3-Amino-1H-pyrazol-4-yl)cyclohexyl]oxy}-3-ethyl-N-(pyrimidin-4-yl)benzenesulfonamide]	130
Cc1cc(S(=O)(=O)Nc2ccncn2)c(F)cc1O[C@H]1CCC(F)(F)C[C@@H]1c1ccn[nH]1 (relative stereo) [Example 157, 4-{[(1S*,2R*)-4,4-Difluoro-2-(1H-pyrazol-5-yl)cyclohexyl]oxy}-2-fluoro-5-methyl-N-(pyrimidin-4-yl)benzenesulfonamide]	50
Cn1nccc1[C@H]1C[C@H](O)CC[C@@H]1Oc1cc(F)c(S(=O)(=O)Nc2ccncn2)cc1Cl (relative stereo) [Example 161, 5-Chloro-2-fluoro-4-{[(1S*,2R*,4R*)-4-hydroxy-2-(1-methyl-1H-pyrazol-5-yl)cyclohexyl]oxy}-N-(pyrimidin-4-yl)benzenesulfonamide]	130
CO[C@H]1C[C@H](Oc2cc(F)c(S(=O)(=O)Nc3ccncn3)cc2F)[C@@H](c2ccnn2C)C1 (relative stereo) [Example 121, 2,5-Difluoro-4-{[(1S*,2R*,4R*)-4-methoxy-2-(1-methyl-1H-pyrazol-5-yl)cyclopentyl]oxy}-N-(pyrimidin-4-yl)benzenesulfonamide]	930
O=S(=O)(Nc1ccncn1)c1cc(F)c(O[C@H]2CCCC[C@@H]2c2ccnnc2)cc1F (relative stereo) [Example 53, 2,5-Difluoro-4-{[(1S*,2R*)-2-(pyridazin-4-yl)cyclohexyl]oxy}-N-(pyrimidin-4-yl)benzenesulfonamide]	330
Cn1nccc1[C@H]1CCC[C@@H]1Oc1ccc(S(=O)(=O)Nc2ccncn2)c(F)c1 [Example 124, 2-Fluoro-4-{[(1S,2R)-2-(1-methyl-1H-pyrazol-5-yl)cyclopentyl]oxy}-N-(pyrimidin-4-yl)benzenesulfonamide]	2400
CCc1cc(S(=O)(=O)Nc2ccncn2)c(F)cc1O[C@H]1CCC[C@@H]1c1ccnn1C (relative stereo) [Example 61, 5-Ethyl-2-fluoro-4-{[(1S*,2R*)-2-(1-methyl-1H-pyrazol-5-yl)cyclopentyl]oxy}-N-(pyrimidin-4-yl)benzenesulfonamide]	2.6
Cn1nccc1[C@@H]1C[C@@H](O)CC[C@H]1Oc1cc(F)c(S(=O)(=O)Nc2ccncn2)cc1Cl [Example 164, 5-Chloro-2-fluoro-4-{[(1R,2S,4S)-4-hydroxy-2-(1-methyl-1H-pyrazol-5-yl)cyclohexyl]oxy}-N-(pyrimidin-4-yl)benzenesulfonamide]	> 10000
Cn1nccc1[C@H]1CCCC[C@@H]1Oc1cc(F)c(S(=O)(=O)Nc2cscn2)cc1Cl (relative stereo) [Example 10, 5-Chloro-2-fluoro-4-{[(1S*,2R*)-2-(1-methyl-1H-pyrazol-5-yl)cyclohexyl]oxy}-N-(1,3-thiazol-4-yl)benzenesulfonamide Na salt]	30

More lines, now with the values ahead:

IC50 [nM]	Compound
520	O=S(=O)(Nc1ccncn1)c1cc(F)c(O[C@H]2CCCC[C@@H]2c2ccn[nH]2)cc1F (relative stereo) [Example 22, 2,5-Difluoro-4-{[(1S*,2R*)-2-(1H-pyrazol-5-yl)cyclohexyl]oxy}-N-(pyrimidin-4-yl)benzenesulfonamide]
230	Cn1nccc1[C@H]1CCC[C@@H]1Oc1ccc(S(=O)(=O)Nc2nccs2)cc1F (relative stereo) [Example 16, 3-Fluoro-4-{[(1S*,2R*)-2-(1-methyl-1H-pyrazol-5-yl)cyclopentyl]oxy}-N-(1,3-thiazol-2-yl)benzenesulfonamide]
> 100000	Cn1nccc1[C@H]1CCCC[C@@H]1Oc1cc(F)c(S(=O)(=O)Nc2ccnc(=O)[nH]2)cc1Cl (relative stereo) [Example 153, 5-Chloro-2-fluoro-4-{[(1S*,2R*)-2-(1-methyl-1H-pyrazol-5-yl)cyclohexyl]oxy}-N-(2-oxo-2,3-dihydropyrimidin-4-yl)benzenesulfonamide]
> 10000	O=S(=O)(Nc1ccncn1)c1c(F)cc(O[C@@H]2CCCC[C@H]2c2cn[nH]c2)cc1F [Example 169, 2,6-Difluoro-4-{[(1R,2S)-2-(1H-pyrazol-4-yl)cyclohexyl]oxy}-N-(pyrimidin-4-yl)benzenesulfonamide]
610	O=S(=O)(Nc1ncns1)c1cc(F)c(O[C@H]2CCC[C@@H]2c2ccccc2)cc1F (relative stereo) [Example 6, 2,5-Difluoro-4-{[(1S*,2R*)-2-phenylcyclopentyl]oxy}-N-(1,2,4-thiadiazol-5-yl)benzenesulfonamide]
14	Cn1nccc1[C@H]1CCCCC[C@@H]1Oc1cc(F)c(S(=O)(=O)Nc2ncns2)cc1F (relative stereo) [Example 9, 2,5-Difluoro-4-{[(1S*,2R*)-2-(1-methyl-1H-pyrazol-5-yl)cycloheptyl]oxy}-N-(1,2,4-thiadiazol-5-yl)benzenesulfonamide]
380	Cn1nccc1[C@@H]1[C@@H](Oc2cc(F)c(S(=O)(=O)Nc3ccncn3)cc2F)CCC[C@H]1OCc1ccccc1 (relative stereo) [Example 100, 4-{[(1S*,2S*,3R*)-3-(Benzyloxy)-2-(1-methyl-1H-pyrazol-5-yl)cyclohexyl]oxy}-2,5-difluoro-N-(pyrimidin-4-yl)benzenesulfonamide]
59	CC(=O)O[C@@H]1CC[C@H](Oc2cc(F)c(S(=O)(=O)Nc3ccncn3)cc2Cl)[C@@H](c2ccnn2C)C1 [Example 166, (1R,3R,4S)-4-[2-Chloro-5-fluoro-4-(pyrimidin-4-ylsulfamoyl)phenoxy]-3-(1-methyl-1H-pyrazol-5-yl)cyclohexyl acetate]
36	Cn1nccc1[C@H]1CCC(F)(F)C[C@@H]1Oc1cc(F)c(S(=O)(=O)Nc2ccncn2)cc1F [Example 102, 4-{[(1S,2R)-5,5-Difluoro-2-(1-methyl-1H-pyrazol-5-yl)cyclohexyl]oxy}-2,5-difluoro-N-(pyrimidin-4-yl)benzenesulfonamide]
190	Cn1nccc1[C@H]1CC[C@H](O)C[C@@H]1Oc1cc(F)c(S(=O)(=O)Nc2ccncn2)cc1Cl (relative stereo) [Example 163, 5-Chloro-2-fluoro-4-{[(1S*,2R*,5S*)-5-hydroxy-2-(1-methyl-1H-pyrazol-5-yl)cyclohexyl]oxy}-N-(pyrimidin-4-yl)benzenesulfonamide]
3400	Cc1cc(S(=O)(=O)Nc2ccncn2)c(F)cc1O[C@@H]1CC(F)(F)CC[C@H]1c1cn[nH]c1 [Example 144, 4-{[(1R,2S)-5,5-Difluoro-2-(1H-pyrazol-4-yl)cyclohexyl]oxy}-2-fluoro-5-methyl-N-(pyrimidin-4-yl)benzenesulfonamide]
170	Cn1nccc1[C@H]1CCC[C@@H]1Oc1ccc(S(=O)(=O)Nc2ccnc(F)n2)cc1F (relative stereo) [Example 18, 3-Fluoro-N-(2-fluoropyrimidin-4-yl)-4-{[(1S*,2R*)-2-(1-methyl-1H-pyrazol-5-yl)cyclopentyl]oxy}benzenesulfonamide]
